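Interpolation was linear, between the two tested concentrations surrounding the appropriate level; five concentrations were tested over 48 hours in 96-well plates. Abbreviation: GI50, concentration required for 50% inhibition of growth. Definition used: TGI = concentration required for complete inhibition of growth.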
Experiments:
Assay in all cases: NCI tumour cell line growth inhibition, 48 h
SF-268 CNS = system: SF-268 CNS
UACC-62 melanoma = system: UACC-62 melanoma
SK-OV-3 ovarian = system: SK-OV-3 ovarian
A549 NSCLC = system: A549 NSCLC
ACHN renal = system: ACHN renal
MALME-3M melanoma = system: MALME-3M melanoma
SW-620 colon = system: SW-620 colon
OVCAR-8 ovarian = system: OVCAR-8 ovarian
LOX IMVI melanoma = system: LOX IMVI melanoma
CAKI-1 renal = system: CAKI-1 renal
CCRF-CEM leukemia = system: CCRF-CEM leukemia
HCC-2998 colon = system: HCC-2998 colon
HOP-62 NSCLC = system: HOP-62 NSCLC
MDA-MB-231 breast = system: MDA-MB-231 breast
M14 melanoma = system: M14 melanoma
786-0 renal = system: 786-0 renal
SNB-75 CNS = system: SNB-75 CNS
SNB-19 CNS = system: SNB-19 CNS
NCI-H460 lung = system: NCI-H460 lung
COLO 205 colon = system: COLO 205 colon
TK-10 renal = system: TK-10 renal
NCI-H522 lung = system: NCI-H522 lung
K-562 leukemia = system: K-562 leukemia
BT-549 breast = system: BT-549 breast
SF-295 CNS = system: SF-295 CNS
NCI-H23 lung = system: NCI-H23 lung
SK-MEL-5 melanoma = system: SK-MEL-5 melanoma
UO-31 renal = system: UO-31 renal
HCT-15 colon = system: HCT-15 colon
IGROV1 ovarian = system: IGROV1 ovarian
T-47D breast = system: T-47D breast
NCI-H226 lung = system: NCI-H226 lung
A498 renal = system: A498 renal
MOLT-4 leukemia = system: MOLT-4 leukemia
HCT-116 colon = system: HCT-116 colon
EKVX NSCLC = system: EKVX NSCLC
DU-145 prostate = system: DU-145 prostate
HL-60(TB) leukemia = system: HL-60(TB) leukemia
RXF 393 renal = system: RXF 393 renal
OVCAR-4 ovarian = system: OVCAR-4 ovarian
HT29 colon = system: HT29 colon
SK-MEL-28 melanoma = system: SK-MEL-28 melanoma
KM12 colon = system: KM12 colon
RPMI-8226 leukemia = system: RPMI-8226 leukemia
PC-3 prostate = system: PC-3 prostate
SF-539 CNS = system: SF-539 CNS
SN12C renal = system: SN12C renal
HS 578T breast = system: HS 578T breast
SK-MEL-2 melanoma = system: SK-MEL-2 melanoma
OVCAR-5 ovarian = system: OVCAR-5 ovarian
MCF7 breast = system: MCF7 breast
U251 CNS = system: U251 CNS
HOP-92 NSCLC = system: HOP-92 NSCLC
MDA-MB-435 = system: MDA-MB-435
NCI/ADR-RES ovarian = system: NCI/ADR-RES ovarian
UACC-257 melanoma = system: UACC-257 melanoma

For `C#CCOc1ccc(-c2csc(NC(=O)C=C)n2)cc1NS(=O)(=O)c1cccc2c(N(C)C)cccc12`, which GI50 (SF-268 CNS) is on record?
The GI50 was 2460 nM.

And the TGI (SF-268 CNS)?
The TGI was 11000 nM.

And the GI50 (UACC-62 melanoma)?
The GI50 was 1180 nM.

What about the TGI (UACC-62 melanoma) of the same compound?
The TGI was 6050 nM.

What about the GI50 (SK-OV-3 ovarian) of the same compound?
The GI50 was 7070 nM.

What about the TGI (SK-OV-3 ovarian) of the same compound?
Its TGI is 15700 nM.

And the GI50 (A549 NSCLC)?
Its GI50 is 2970 nM.

And the TGI (A549 NSCLC)?
Its TGI is 13200 nM.

And the GI50 (ACHN renal)?
The GI50 was 861 nM.

And the TGI (ACHN renal)?
The TGI was 1740 nM.

What about the GI50 (MALME-3M melanoma) of the same compound?
Its GI50 is 1070 nM.

And the TGI (MALME-3M melanoma)?
Its TGI is 3460 nM.

And the GI50 (SW-620 colon)?
The GI50 was 848 nM.

What about the TGI (SW-620 colon) of the same compound?
Its TGI is 1750 nM.

What about the GI50 (OVCAR-8 ovarian) of the same compound?
Its GI50 is 930 nM.

And the TGI (OVCAR-8 ovarian)?
The TGI was 2020 nM.

What about the GI50 (LOX IMVI melanoma) of the same compound?
The GI50 was 25.2 nM.

What about the TGI (LOX IMVI melanoma) of the same compound?
Its TGI is 668 nM.

And the GI50 (CAKI-1 renal)?
The GI50 was 1380 nM.

And the TGI (CAKI-1 renal)?
The TGI was 5810 nM.

What about the GI50 (CCRF-CEM leukemia) of the same compound?
Its GI50 is 312 nM.

What about the TGI (CCRF-CEM leukemia) of the same compound?
Its TGI is 2650 nM.

And the GI50 (HCC-2998 colon)?
The GI50 was 3000 nM.

What about the TGI (HCC-2998 colon) of the same compound?
Its TGI is 9580 nM.

What about the GI50 (HOP-62 NSCLC) of the same compound?
Its GI50 is 1640 nM.

What about the TGI (HOP-62 NSCLC) of the same compound?
Its TGI is 8040 nM.

And the GI50 (MDA-MB-231 breast)?
The GI50 was 1790 nM.

And the TGI (MDA-MB-231 breast)?
Its TGI is 9420 nM.

What about the GI50 (M14 melanoma) of the same compound?
The GI50 was 1020 nM.

What about the TGI (M14 melanoma) of the same compound?
The TGI was 2580 nM.

And the GI50 (786-0 renal)?
The GI50 was 909 nM.

What about the TGI (786-0 renal) of the same compound?
The TGI was 1940 nM.

What about the GI50 (SNB-75 CNS) of the same compound?
Its GI50 is 862 nM.

What about the TGI (SNB-75 CNS) of the same compound?
The TGI was 4600 nM.

And the GI50 (SNB-19 CNS)?
The GI50 was 2250 nM.

What about the TGI (SNB-19 CNS) of the same compound?
Its TGI is 12100 nM.

And the GI50 (NCI-H460 lung)?
Its GI50 is 2110 nM.

And the TGI (NCI-H460 lung)?
Its TGI is 8520 nM.

What about the GI50 (COLO 205 colon) of the same compound?
The GI50 was 2190 nM.

And the TGI (COLO 205 colon)?
Its TGI is 7970 nM.

And the GI50 (TK-10 renal)?
Its GI50 is 934 nM.

What about the TGI (TK-10 renal) of the same compound?
The TGI was 2040 nM.

And the GI50 (NCI-H522 lung)?
The GI50 was 806 nM.

And the TGI (NCI-H522 lung)?
Its TGI is 1630 nM.

What about the GI50 (K-562 leukemia) of the same compound?
Its GI50 is 1200 nM.

And the TGI (K-562 leukemia)?
The TGI was 3800 nM.

What about the GI50 (BT-549 breast) of the same compound?
The GI50 was 810 nM.

And the TGI (BT-549 breast)?
The TGI was 1520 nM.

What about the GI50 (SF-295 CNS) of the same compound?
The GI50 was 3810 nM.

What about the TGI (SF-295 CNS) of the same compound?
Its TGI is 11500 nM.

And the GI50 (NCI-H23 lung)?
Its GI50 is 1790 nM.

What about the TGI (NCI-H23 lung) of the same compound?
Its TGI is 7670 nM.

And the GI50 (SK-MEL-5 melanoma)?
The GI50 was 1680 nM.

And the TGI (SK-MEL-5 melanoma)?
Its TGI is 6280 nM.

What about the GI50 (UO-31 renal) of the same compound?
Its GI50 is 727 nM.

What about the TGI (UO-31 renal) of the same compound?
The TGI was 1430 nM.

What about the GI50 (HCT-15 colon) of the same compound?
The GI50 was 900 nM.

What about the TGI (HCT-15 colon) of the same compound?
The TGI was 2160 nM.

And the GI50 (IGROV1 ovarian)?
The GI50 was 1090 nM.

And the TGI (IGROV1 ovarian)?
The TGI was 2700 nM.

What about the GI50 (T-47D breast) of the same compound?
The GI50 was 1490 nM.

What about the TGI (T-47D breast) of the same compound?
The TGI was 6950 nM.

What about the GI50 (NCI-H226 lung) of the same compound?
The GI50 was 1170 nM.

And the TGI (NCI-H226 lung)?
The TGI was 3510 nM.

What about the GI50 (A498 renal) of the same compound?
Its GI50 is 1710 nM.

What about the TGI (A498 renal) of the same compound?
The TGI was 6830 nM.

What about the GI50 (MOLT-4 leukemia) of the same compound?
Its GI50 is 1180 nM.

And the TGI (MOLT-4 leukemia)?
The TGI was 3830 nM.

What about the GI50 (HCT-116 colon) of the same compound?
Its GI50 is 800 nM.

What about the TGI (HCT-116 colon) of the same compound?
Its TGI is 1570 nM.

What about the GI50 (EKVX NSCLC) of the same compound?
Its GI50 is 7920 nM.

What about the TGI (EKVX NSCLC) of the same compound?
The TGI was 22600 nM.

What about the GI50 (DU-145 prostate) of the same compound?
The GI50 was 1540 nM.

What about the TGI (DU-145 prostate) of the same compound?
The TGI was 5250 nM.

What about the GI50 (HL-60(TB) leukemia) of the same compound?
Its GI50 is 683 nM.

And the TGI (HL-60(TB) leukemia)?
Its TGI is 2120 nM.

And the GI50 (RXF 393 renal)?
The GI50 was 1120 nM.

And the TGI (RXF 393 renal)?
Its TGI is 2070 nM.

And the GI50 (OVCAR-4 ovarian)?
The GI50 was 3000 nM.

What about the TGI (OVCAR-4 ovarian) of the same compound?
The TGI was 22600 nM.

And the GI50 (HT29 colon)?
The GI50 was 838 nM.

What about the TGI (HT29 colon) of the same compound?
Its TGI is 1670 nM.

And the GI50 (SK-MEL-28 melanoma)?
Its GI50 is 1250 nM.

What about the TGI (SK-MEL-28 melanoma) of the same compound?
The TGI was 3610 nM.

And the GI50 (KM12 colon)?
Its GI50 is 2210 nM.

What about the TGI (KM12 colon) of the same compound?
Its TGI is 8270 nM.

What about the GI50 (RPMI-8226 leukemia) of the same compound?
The GI50 was 947 nM.

What about the TGI (RPMI-8226 leukemia) of the same compound?
Its TGI is 2570 nM.

And the GI50 (PC-3 prostate)?
The GI50 was 1900 nM.

What about the TGI (PC-3 prostate) of the same compound?
The TGI was 8550 nM.

What about the GI50 (SF-539 CNS) of the same compound?
The GI50 was 861 nM.

What about the TGI (SF-539 CNS) of the same compound?
The TGI was 1780 nM.

What about the GI50 (SN12C renal) of the same compound?
Its GI50 is 1300 nM.

What about the TGI (SN12C renal) of the same compound?
The TGI was 5020 nM.

What about the GI50 (HS 578T breast) of the same compound?
The GI50 was 1680 nM.

And the TGI (HS 578T breast)?
Its TGI is 22300 nM.

And the GI50 (SK-MEL-2 melanoma)?
Its GI50 is 973 nM.

And the TGI (SK-MEL-2 melanoma)?
Its TGI is 2190 nM.

And the GI50 (OVCAR-5 ovarian)?
The GI50 was 1470 nM.

And the TGI (OVCAR-5 ovarian)?
The TGI was 6180 nM.

And the GI50 (MCF7 breast)?
Its GI50 is 1090 nM.

What about the TGI (MCF7 breast) of the same compound?
Its TGI is 5100 nM.

What about the GI50 (U251 CNS) of the same compound?
Its GI50 is 2400 nM.

And the TGI (U251 CNS)?
The TGI was 8390 nM.

And the GI50 (HOP-92 NSCLC)?
Its GI50 is 819 nM.

What about the TGI (HOP-92 NSCLC) of the same compound?
Its TGI is 3610 nM.

And the GI50 (MDA-MB-435)?
Its GI50 is 1310 nM.

And the TGI (MDA-MB-435)?
The TGI was 3840 nM.

What about the GI50 (NCI/ADR-RES ovarian) of the same compound?
Its GI50 is 1450 nM.

And the TGI (NCI/ADR-RES ovarian)?
Its TGI is 50000 nM.

What about the GI50 (UACC-257 melanoma) of the same compound?
Its GI50 is 2460 nM.

And the TGI (UACC-257 melanoma)?
Its TGI is 10000 nM.

— PubChem BioAssay (NCI)
